# Data from publication PMC3532132, “High-resolution structures of AidH complexes provide insights into a novel catalytic mechanism for N-acyl homoserine lactonase” (Acta Crystallographica Section D: Biological Crystallography, 2012).
# Molecular target: T1, AidH (Ochrobactrum sp. T63, UniProt D2J2T6)
# T1 construct: full length (251 residues), pET22b(+), C-terminal His tag, E. coli BL21(DE3); monomer in solution; alpha/beta-hydrolase, metal-independent
# T1 sequence (D2J2T6 1-271): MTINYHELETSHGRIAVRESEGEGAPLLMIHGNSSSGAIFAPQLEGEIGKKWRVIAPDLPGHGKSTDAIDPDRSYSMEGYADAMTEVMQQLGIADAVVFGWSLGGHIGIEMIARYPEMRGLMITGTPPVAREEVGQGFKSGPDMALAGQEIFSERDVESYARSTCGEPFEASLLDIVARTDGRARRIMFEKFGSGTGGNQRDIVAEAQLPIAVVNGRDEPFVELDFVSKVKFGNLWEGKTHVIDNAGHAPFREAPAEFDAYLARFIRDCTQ
# Test: X-ray crystal structure, […] A, soaked crystal
# Format: binding
# Conditions: product of C4-HSL hydrolysis; active site, hydrogen bonds to Ser102, His248, Tyr160
structure (smiles),measurement,value
"CCCC(=O)N[C@@H](CCO)C(=O)O [C4-HS, N-butanoyl homoserine]","X-ray crystal structure, 1.09 A, soaked crystal",crystal structure of wild-type AidH complexed with the product C4-HS (AidH–C4-HS) was determined
